In US20230382940A1, “ANTIVIRAL COMPOUNDS AND METHODS OF MAKING AND USING THE SAME” (Gilead Sciences, Inc., priority 2022, published 2023) one finds EC50 data, which are given here for nine compounds.

Holding throughout (type): cell-based
Assay [1] concerns Respiratory syncytial virus recombinant with luciferase (RSV-Luc5). In words: HEp-2 RSV-Luc5 384-well assay (EC50 RSVFLUC Hep2-384 v2), Example V. Conditions: human respiratory syncytial virus, HEp-2, 72 h, read-out: EC50 RSV FLuc Hep-2 384 V2 (per Ex. V). An outline of the steps: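 HEp-2 cells (4,000/well) seeded onto spotted compounds (10-point, 1:3 dilutions) and infected with RSV-Luc5 at MOI 0.5. After 3 days at 37 °C, luciferase read with One-Glo. Signal normalized to remdesivir (0%) and DMSO (100% replication) controls; EC50 from non-linear regression.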

For assay [2], the system named is Human Rhinovirus 16 (HRV16). The assay is described as follows: H1-HeLa HRV-CTG 384-well assay, HRV16, Example X. Conditions: Rhinovirus A, 96 h; H1-HeLa cells, HRV16 MOI 0.25, 4 days, Celltiter-Glo; read-out: EC50 H1-HeLa_HRV 16_HRV-CTG 384-well Assay (per Ex. X). An outline of the steps:
(§1)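 H1-HeLa cells (5,000/well, DMEM 2% FBS) infected with HRV1B, HRV14 or HRV16 at MOI 0.5, 1.0 and 0.25 respectively, with 10-point 1:3 compound dilutions; 4 days at 37 °C. Viability by CellTiter-Glo luminescence, normalized to rupintrivir and DMSO controls; EC50 by non-linear regression.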
A general note: ATP-based viability assays read luminescence as a measure of living cells.

For assay [3], the system named is Human Rhinovirus 14 (HRV14). In words: H1-HeLa HRV-CTG 384-well assay, HRV14, Example X. Conditions: Rhinovirus B, 96 h; H1-HeLa cells, HRV14 MOI 1.0, 4 days, Celltiter-Glo; read-out: EC50 H1-HeLa_HRV 14_HRV-CTG 384-well Assay (per Ex. X). An outline of the steps: as §1

As for `N#C[C@]1(COC(=O)O[C@@H]2C[C@@H]3C[C@@H]3C2)O[C@@H](c2ccc3c(N)ncnn23)[C@H](O)[C@@H]1O` [Compound 39, ((2R,3S,4R,5S)-5-(4-aminopyrrolo[2,1-f][1,2,4]triazin-7-yl)-2-cyano-3,4-dihydroxytetrahydrofuran-2-yl)methyl ((1R,3r,5S)-bicyclo[3.1.0]hexan-3-yl) carbonate], the EC50 in assay [1] is 28.1 µM; in assay [2], 22 µM; in assay [3] it was 11.7 µM.
For `N#C[C@]1(COC(=O)OC2CC2)O[C@@H](c2ccc3c(N)ncnn23)[C@H](O)[C@@H]1O` [Compound 23, ((2R,3S,4R,5S)-5-(4-aminopyrrolo[2,1-f][1,2,4]triazin-7-yl)-2-cyano-3,4-dihydroxytetrahydrofuran-2-yl)methyl cyclopropyl carbonate], in that order: 15.4 µM, 9.64 µM and 11.4 µM.
The corresponding values for `CC(C)(C)CCOC(=O)OC[C@@]1(C#N)O[C@@H](c2ccc3c(N)ncnn23)[C@H](O)[C@@H]1O` [Compound 35, ((2R,3S,4R,5S)-5-(4-aminopyrrolo[2,1-f][1,2,4]triazin-7-yl)-2-cyano-3,4-dihydroxytetrahydrofuran-2-yl)methyl (3,3-dimethylbutyl) carbonate] are 18.9 µM, 15.1 µM and 12.2 µM.
On to `CC[C@H](C)OC(=O)OC[C@@]1(C#N)O[C@@H](c2ccc3c(N)ncnn23)[C@H](O)[C@@H]1O` [Compound 4, ((2R,3S,4R,5S)-5-(4-aminopyrrolo[2,1-f][1,2,4]triazin-7-yl)-2-cyano-3,4-dihydroxytetrahydrofuran-2-yl)methyl ((S)-sec-butyl) carbonate], for which the EC50 in assay [1] worked out at 24.1 µM; in assay [2], 38.6 µM; in assay [3], 22.2 µM.
As to `CC(C)(C)COC(=O)OC[C@@]1(C#N)O[C@@H](c2ccc3c(N)ncnn23)[C@H](O)[C@@H]1O` [Compound 2, ((2R,3S,4R,5S)-5-(4-aminopyrrolo[2,1-f][1,2,4]triazin-7-yl)-2-cyano-3,4-dihydroxytetrahydrofuran-2-yl)methyl neopentyl carbonate], the figures for the EC50 in assay [1], in assay [2] and in assay [3] were 9.49 µM, 9.74 µM and 7.66 µM, respectively.
On to `CC(C)OC(=O)OC[C@@]1(C#N)O[C@@H](c2ccc3c(N)ncnn23)[C@H](O)[C@@H]1O` [Compound 11, ((2R,3S,4R,5S)-5-(4-aminopyrrolo[2,1-f][1,2,4]triazin-7-yl)-2-cyano-3,4-dihydroxytetrahydrofuran-2-yl)methyl isopropyl carbonate], for which the EC50 turned out to be 31.2 µM in assay [1], 37.4 µM in assay [2] and 31.1 µM in assay [3].
As to `N#C[C@]1(COC(=O)OCCc2ccccc2)O[C@@H](c2ccc3c(N)ncnn23)[C@H](O)[C@@H]1O` [Compound 5, ((2R,3S,4R,5S)-5-(4-aminopyrrolo[2,1-f][1,2,4]triazin-7-yl)-2-cyano-3,4-dihydroxytetrahydrofuran-2-yl)methyl phenethyl carbonate], the EC50 in assay [1] turned out to be 17.9 µM; in assay [2], 11.2 µM; in assay [3], 9.75 µM.
Take `CC1(C)CC(OC(=O)OC[C@@]2(C#N)O[C@@H](c3ccc4c(N)ncnn34)[C@H](O)[C@@H]2O)C1` [Compound 37, ((2R,3S,4R,5S)-5-(4-aminopyrrolo[2,1-f][1,2,4]triazin-7-yl)-2-cyano-3,4-dihydroxytetrahydrofuran-2-yl)methyl (3,3-dimethylcyclobutyl) carbonate]: the EC50 in assay [1] amounted to 21.3 µM; in assay [2] it was 12.6 µM; in assay [3], 20.5 µM.
The corresponding values for `C[C@H]1CC[C@H](OC(=O)OC[C@@]2(C#N)O[C@@H](c3ccc4c(N)ncnn34)[C@H](O)[C@@H]2O)CC1` [Compound 40, ((2R,3S,4R,5S)-5-(4-aminopyrrolo[2,1-f][1,2,4]triazin-7-yl)-2-cyano-3,4-dihydroxytetrahydrofuran-2-yl)methyl ((1r,4R)-4-methylcyclohexyl) carbonate] are 26.7 µM, 29.3 µM and 15.4 µM.

By EC50 is commonly meant the concentration needed to bring the measured effect to its halfway point.
